Source: PMC9511823 (Bioorganic & medicinal chemistry letters, 2020)
Read-outs that look alike come from different tables or passages of the source.

Experiments:
[1] = molecular target: T1, CpIMPDH (Cryptosporidium parvum, UniProt Q8T6T2); test: biochemical; type: biochemical; details: for CpIMPDH inhibition, result in words: relative to parent anilide
T1 sequence (Q8T6T2 1-400): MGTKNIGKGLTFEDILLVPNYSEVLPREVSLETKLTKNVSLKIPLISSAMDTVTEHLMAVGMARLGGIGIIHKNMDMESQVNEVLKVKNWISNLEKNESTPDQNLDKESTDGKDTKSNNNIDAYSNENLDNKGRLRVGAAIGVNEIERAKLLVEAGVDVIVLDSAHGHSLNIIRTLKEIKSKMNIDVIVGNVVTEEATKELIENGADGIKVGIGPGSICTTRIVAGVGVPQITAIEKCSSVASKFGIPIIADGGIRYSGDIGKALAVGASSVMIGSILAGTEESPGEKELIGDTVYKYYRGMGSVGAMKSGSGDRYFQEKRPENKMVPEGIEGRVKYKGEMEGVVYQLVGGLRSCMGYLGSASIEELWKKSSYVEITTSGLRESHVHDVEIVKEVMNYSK

[2] = molecular target: HsIMPDH2 (Homo sapiens, UniProt P12268); test: HsIMPDH2 enzyme inhibition; type: biochemical
[3] = molecular target: HsIMPDH1; details: read-out: HsIMPDH1 Ki; cited from earlier work
[4] = molecular target: T1, CpIMPDH; details: read-out: CpIMPDH Ki; cited from earlier work
[5] = molecular target: MtbIMPDH (Mycobacterium tuberculosis, UniProt P9WKI7); test: MtbIMPDH inhibition; type: biochemical
MtbIMPDH, sequence (P9WKI7 whole entry, looked up): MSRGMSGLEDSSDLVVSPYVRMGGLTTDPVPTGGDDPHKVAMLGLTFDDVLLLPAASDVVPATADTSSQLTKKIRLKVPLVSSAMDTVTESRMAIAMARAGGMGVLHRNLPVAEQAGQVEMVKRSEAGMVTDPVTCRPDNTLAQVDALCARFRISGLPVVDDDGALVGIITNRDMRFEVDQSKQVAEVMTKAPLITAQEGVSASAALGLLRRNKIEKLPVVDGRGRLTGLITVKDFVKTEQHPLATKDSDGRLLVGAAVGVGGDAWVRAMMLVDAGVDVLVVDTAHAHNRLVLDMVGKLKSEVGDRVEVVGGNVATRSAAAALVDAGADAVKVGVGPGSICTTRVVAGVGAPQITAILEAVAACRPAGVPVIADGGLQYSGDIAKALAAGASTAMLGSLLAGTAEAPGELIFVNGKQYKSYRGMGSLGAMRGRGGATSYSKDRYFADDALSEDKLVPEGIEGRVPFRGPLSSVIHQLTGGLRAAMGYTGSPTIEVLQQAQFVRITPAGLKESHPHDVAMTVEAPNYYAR

[6] = ratio of Ki,app of the two enantiomers

| SMILES | Ki [1] [nM] | Ki [2] [nM] | further results |
| --- | --- | --- | --- |
| COc1c(C)c2c(c(O)c1C[C@@H]1C[C@@]1(C)CCC(=O)Nc1ccc(Cl)c(C(F)(F)F)c1)C(=O)OC2 [Compound 31b] | 66 | 460 | eudysmic ratio of 31b and 31a for CpIMPDH inhibition [1, 6]: 8.6; eudysmic ratio of 31b and 31a for HsIMPDH inhibition [2, 6]: 3.1 |
| COc1c(C)c2c(c(O)c1C/C=C(\C)CCC(=O)O)C(=O)OC2 [MPA, Mycophenolic acid] |  |  | Ki [3]: 33 nM; Ki [4]: 9300 nM |
| COc1c(C)c2c(c(O)c1C/C=C(\C)CCC(=O)N(C)c1ccc(Cl)cc1)C(=O)OC2 [Compound 16] |  |  | CpIMPDH inhibition, result in words [1]: loss of activity |
| COc1c(C)c2c(c(O)c1C/C=C(\C)CCC(=O)Nc1cccc(Cl)c1Cl)C(=O)OC2 [Compound 11] |  |  | CpIMPDH inhibition, result in words [1]: loss of CpIMPDH inhibitory activity |
| COc1c(C)c2c(c(O)c1C/C=C(\C)CCC(=O)Nc1ccc(Cl)c(C(F)(F)F)c1)C(=O)OC2 [Compound 10] |  |  | Ki [5]: 60 nM |
| COc1c(C)c2c(c(O)c1C[C@H]1C[C@]1(C)CCC(=O)Nc1ccc(Cl)c(C(F)(F)F)c1)C(=O)OC2 [Compound 31a] | 570 | 1400 |  |

More lines, main results first:

| Ki [1] [nM] | Ki [2] [nM] | SMILES | further results |
| --- | --- | --- | --- |
| 450 | 290 | COc1c(C)c2c(c(O)c1CCCC(=O)Nc1ccc(Cl)cc1)C(=O)OC2 [Compound 42b] |  |
| 2800 | 800 | COc1c(C)c2c(c(O)c1CC(=O)Nc1ccc(Cl)cc1)C(=O)OC2 [Compound 44] |  |
| 480 | 550 | COc1c(C)c2c(c(O)c1C/C=C/C(=O)Nc1ccc(Cl)cc1)C(=O)OC2 [Compound 42a] |  |
| 151 |  | COc1c(C)c2c(c(O)c1C/C=C(\C)CCC(=O)Nc1ccc(C(F)(F)F)cc1)C(=O)OC2 [Compound 14] |  |
| 180 |  | COc1c(C)c2c(c(O)c1C/C=C(\C)CCC(=O)Nc1ccc(F)cc1)C(=O)OC2 [Compound 13] |  |
| 405 | 870 | COc1c(C)c2c(c(O)c1CCOCC(=O)Nc1ccc(Cl)cc1)C(=O)OC2 [Compound 38] |  |
